# Reference: ChEMBL document CHEMBL3217456 (Medchemcomm, 2014)
# The source made the active and inactive calls. The calls are words filed in the database; no cut-off is given here.
# How the values were obtained:
# Histamine H2 receptor [1] = biological target: T1, Histamine H2 receptor (Cavia porcellus, UniProt P47747); assay: Antagonist activity at guinea pig histamine H2 receptor assessed as inhibition of histamine-induced response after 30 mins; settings: read-out: pA2 (converted)
# Histamine H4 receptor [2] = biological target: T2, Histamine H4 receptor (Homo sapiens, UniProt Q9H3N8); assay: (§1) Antagonist activity at human recombinant histamine H4 receptor-RGS19 fusion protein expressed in Sf9 cells coexpressing Galphai2,Gbeta1gamma2 assessed as inhibition of histamine-induced […] hydrolysis preincubated for 2 mins before [gamma32P]GTP addition measured after 20 mins by steady-state GTPase activity assay; type: functional
# Histamine H3 receptor [3] = biological target: T3, Histamine H3 receptor (Homo sapiens, UniProt Q9Y5N1); assay: as §1, with “H3 receptor” for “H4 receptor-RGS19 fusion protein”, “Galphai2,Gbeta1gamma2 and RGS4” for “Galphai2,Gbeta1gamma2”; type: functional
# Histamine H2 receptor [4] = biological target: T4, Histamine H2 receptor (Homo sapiens, UniProt P25021); assay: Antagonist activity at human recombinant histamine H2 receptor-Gsalphas fusion protein expressed in Sf9 cells assessed as inhibition of histamine-induced […] hydrolysis preincubated for 2 mins before [gamma32P]GTP addition measured after 20 mins by steady-state GTPase activity assay; type: functional
# [5] = biological target: Histamine H1 receptor (Homo sapiens) (UniProt P35367); assay: Antagonist activity at human recombinant histamine H1 receptor expressed in Sf9 cells coexpressing RGS4 assessed as inhibition of histamine-induced […] hydrolysis preincubated for 2 mins before [gamma32P]GTP addition measured after 20 mins by steady-state GTPase activity assay; type: functional
# Histamine H3 receptor [6] = biological target: T3, Histamine H3 receptor; assay: Intrinsic activity at human recombinant histamine H3 receptor expressed in Sf9 cells coexpressing Galphai2,Gbeta1gamma2 and RGS4 preincubated for 2 mins before [gamma32P]GTP addition measured after 20 mins by steady-state GTPase activity assay relative to histamine
# Histamine H2 receptor [7] = biological target: T4, Histamine H2 receptor; assay: Intrinsic activity at human recombinant histamine H2 receptor-Gsalphas fusion protein expressed in Sf9 cells preincubated for 2 mins before [gamma32P]GTP addition measured after 20 mins by steady-state GTPase activity assay relative to histamine
# [8] = biological target: Histamine H2 receptor (Cavia porcellus) (UniProt P47747); assay: Antagonist activity at guinea pig histamine H2 receptor assessed as reduction of histamine-induced maximal response after 30 mins
# [9] = Selectivity ratio of EC50 for human recombinant histamine H1 receptor expressed in Sf9 cells coexpressing RGS4 to EC50 for human recombinant histamine H4 receptor-RGS19 fusion protein expressed in Sf9 cells coexpressing Galphai2,Gbeta1gamma2
# [10] = Selectivity ratio of EC50 for human recombinant histamine H2 receptor-Gsalphas fusion protein expressed in Sf9 cells to EC50 for human recombinant histamine H4 receptor-RGS19 fusion protein expressed in Sf9 cells coexpressing Galphai2,Gbeta1gamma2
# [11] = Selectivity ratio of EC50 for human recombinant histamine H3 receptor expressed in Sf9 cells coexpressing Galphai2,Gbeta1gamma2 and RGS4 to EC50 for human recombinant histamine H4 receptor-RGS19 fusion protein expressed in Sf9 cells coexpressing Galphai2,Gbeta1gamma2
# Histamine H3 receptor [12] = biological target: T3, Histamine H3 receptor; assay: Antagonist activity at human recombinant histamine H3 receptor expressed in Sf9 cells coexpressing Galphai2,Gbeta1gamma2 and RGS4 assessed as inhibition of histamine-induced [35S]GTPgammaS binding after 90 mins by liquid scintillation counting; type: functional
# Histamine H2 receptor [13] = biological target: T4, Histamine H2 receptor; assay: Antagonist activity at human recombinant histamine H2 receptor-Gsalphas fusion protein expressed in Sf9 cells assessed as inhibition of histamine-induced [35S]GTPgammaS binding after 90 mins by liquid scintillation counting; type: functional
# Histamine H4 receptor [14] = biological target: T2, Histamine H4 receptor; assay: Intrinsic activity at human recombinant histamine H4 receptor-RGS19 fusion protein expressed in Sf9 cells coexpressing Galphai2,Gbeta1gamma2 assessed as [35S]GTPgammaS binding at 10 uM after 90 mins by liquid scintillation counting relative to histamine; type: functional
# Histamine H3 receptor [15] = biological target: T3, Histamine H3 receptor; assay: Intrinsic activity at human recombinant histamine H3 receptor expressed in Sf9 cells coexpressing Galphai2,Gbeta1gamma2 and RGS4 assessed as [35S]GTPgammaS binding at 10 uM after 90 mins by liquid scintillation counting relative to histamine; type: functional
# Histamine H2 receptor [16] = biological target: T4, Histamine H2 receptor; assay: Intrinsic activity at human recombinant histamine H2 receptor-Gsalphas fusion protein expressed in Sf9 cells assessed as [35S]GTPgammaS binding at 10 uM after 90 mins by liquid scintillation counting relative to histamine; type: functional
# Histamine H4 receptor [17] = biological target: T2, Histamine H4 receptor; assay: Agonist activity at human recombinant histamine H4 receptor-RGS19 fusion protein expressed in Sf9 cells coexpressing Galphai2,Gbeta1gamma2 assessed as [35S]GTPgammaS binding after 90 mins by liquid scintillation counting; type: functional
# [18] = biological target: Histamine H1 receptor (Homo sapiens) (UniProt P35367); assay: Intrinsic activity at human recombinant histamine H1 receptor expressed in Sf9 cells coexpressing RGS4 preincubated for 2 mins before [gamma32P]GTP addition measured after 20 mins by steady-state GTPase activity assay relative to histamine
# [19] = biological target: Histamine H2 receptor (Cavia porcellus) (UniProt P47747); assay: Agonist activity at guinea pig histamine H2 receptor assessed as potentiation of histamine-induced response after 30 mins relative to histamine
# Histamine H2 receptor [20] = biological target: T1, Histamine H2 receptor; assay: Agonist activity at guinea pig atrium histamine H2 receptor assessed as potentiation of histamine-induced response after 30 mins; design: species or system Cardiac atrium
# Histamine H1 receptor = Histamine H1 receptor (Cavia porcellus, UniProt P31389); assay: Antagonist activity at guinea pig ileum histamine H1 receptor assessed as inhibition of histamine-induced response after 10 to 15 mins; type: tissue-based; settings: read-out: pA2 (converted)
# Histamine H4 receptor [21] = biological target: T2, Histamine H4 receptor; assay: Agonist activity at human recombinant histamine H4 receptor-RGS19 fusion protein expressed in Sf9 cells coexpressing Galphai2,Gbeta1gamma2 preincubated for 2 mins before [gamma32P]GTP addition measured after 20 mins by steady-state GTPase activity assay
# Histamine H2 receptor [22] = biological target: T4, Histamine H2 receptor; assay: Agonist activity at human recombinant histamine H2 receptor-Gsalphas fusion protein expressed in Sf9 cells preincubated for 2 mins before [gamma32P]GTP addition measured after 20 mins by steady-state GTPase activity assay
# Histamine H4 receptor [23] = biological target: T2, Histamine H4 receptor; assay: Antagonist activity at human recombinant histamine H4 receptor-RGS19 fusion protein expressed in Sf9 cells coexpressing Galphai2,Gbeta1gamma2 assessed as inhibition of histamine-induced [35S]GTPgammaS binding after 90 mins by liquid scintillation counting; type: functional
# Histamine H2 receptor [24] = biological target: T4, Histamine H2 receptor; assay: Agonist activity at human recombinant histamine H2 receptor-Gsalphas fusion protein expressed in Sf9 cells assessed as [35S]GTPgammaS binding after 90 mins by liquid scintillation counting; type: functional
# [25] = biological target: Histamine H1 receptor (Homo sapiens) (UniProt P35367); settings: Sf9
# Histamine H4 receptor [26] = biological target: T2, Histamine H4 receptor; assay: Intrinsic activity at human recombinant histamine H4 receptor-RGS19 fusion protein expressed in Sf9 cells coexpressing Galphai2,Gbeta1gamma2 preincubated for 2 mins before [gamma32P]GTP addition measured after 20 mins by steady-state GTPase activity assay relative to histamine
# [27] = biological target: Histamine H2 receptor (Cavia porcellus) (UniProt P47747); assay: Agonist activity at guinea pig histamine H2 receptor assessed as potentiation of histamine-induced response at 30 uM after 30 mins relative to histamine
# T3 sequence (Q9Y5N1 whole entry, the tested form may be a part): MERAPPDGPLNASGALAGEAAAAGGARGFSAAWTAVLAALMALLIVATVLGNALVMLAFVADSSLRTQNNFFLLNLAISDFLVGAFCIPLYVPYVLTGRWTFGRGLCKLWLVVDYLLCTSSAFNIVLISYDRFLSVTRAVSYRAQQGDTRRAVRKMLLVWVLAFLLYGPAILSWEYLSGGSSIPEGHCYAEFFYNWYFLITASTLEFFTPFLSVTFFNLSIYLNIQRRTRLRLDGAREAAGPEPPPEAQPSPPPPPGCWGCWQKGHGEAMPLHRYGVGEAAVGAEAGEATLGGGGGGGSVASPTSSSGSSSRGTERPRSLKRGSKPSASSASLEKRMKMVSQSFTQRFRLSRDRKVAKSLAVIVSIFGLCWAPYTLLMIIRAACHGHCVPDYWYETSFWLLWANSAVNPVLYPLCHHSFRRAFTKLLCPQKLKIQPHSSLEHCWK
# T4 sequence (P25021 whole entry, the tested form may be a part): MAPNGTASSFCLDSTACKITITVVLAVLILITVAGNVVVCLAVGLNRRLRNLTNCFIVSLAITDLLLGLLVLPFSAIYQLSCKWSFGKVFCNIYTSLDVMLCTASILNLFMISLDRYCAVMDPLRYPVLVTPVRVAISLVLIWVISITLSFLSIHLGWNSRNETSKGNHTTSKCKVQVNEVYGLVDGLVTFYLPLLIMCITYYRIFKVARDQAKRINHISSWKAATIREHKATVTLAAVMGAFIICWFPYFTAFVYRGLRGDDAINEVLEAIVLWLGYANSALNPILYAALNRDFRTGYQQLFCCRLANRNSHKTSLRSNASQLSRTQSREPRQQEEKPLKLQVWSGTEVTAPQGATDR
# T1 sequence (P47747 whole entry, the tested form may be a part): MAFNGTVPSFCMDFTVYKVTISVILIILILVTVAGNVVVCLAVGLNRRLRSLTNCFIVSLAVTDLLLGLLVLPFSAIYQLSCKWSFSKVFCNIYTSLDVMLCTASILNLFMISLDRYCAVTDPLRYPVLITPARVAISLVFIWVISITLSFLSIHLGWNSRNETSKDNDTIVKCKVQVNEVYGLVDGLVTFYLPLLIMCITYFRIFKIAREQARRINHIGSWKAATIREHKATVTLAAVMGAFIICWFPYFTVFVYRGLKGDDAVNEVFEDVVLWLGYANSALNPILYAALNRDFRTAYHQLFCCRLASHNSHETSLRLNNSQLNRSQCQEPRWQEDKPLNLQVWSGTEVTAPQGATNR
# Sequence of Histamine H2 receptor (Cavia porcellus) (P47747 whole entry, the tested form may be a part): as above
# Sequence of Histamine H1 receptor (Homo sapiens) (P35367 whole entry, the tested form may be a part): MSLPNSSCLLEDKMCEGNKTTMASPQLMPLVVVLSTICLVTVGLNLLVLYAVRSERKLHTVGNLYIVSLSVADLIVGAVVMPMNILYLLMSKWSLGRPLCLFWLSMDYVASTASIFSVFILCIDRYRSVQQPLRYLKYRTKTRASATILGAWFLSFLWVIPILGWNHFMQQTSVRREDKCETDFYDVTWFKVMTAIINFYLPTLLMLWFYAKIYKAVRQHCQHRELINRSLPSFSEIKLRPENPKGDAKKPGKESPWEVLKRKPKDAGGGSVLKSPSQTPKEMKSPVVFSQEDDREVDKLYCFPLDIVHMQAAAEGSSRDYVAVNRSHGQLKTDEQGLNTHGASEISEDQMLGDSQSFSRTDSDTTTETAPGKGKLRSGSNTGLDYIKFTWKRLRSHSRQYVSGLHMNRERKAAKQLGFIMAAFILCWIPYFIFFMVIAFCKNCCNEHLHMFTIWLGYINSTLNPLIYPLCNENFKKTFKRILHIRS
# Sequence of Histamine H1 receptor (P31389 whole entry, the tested form may be a part): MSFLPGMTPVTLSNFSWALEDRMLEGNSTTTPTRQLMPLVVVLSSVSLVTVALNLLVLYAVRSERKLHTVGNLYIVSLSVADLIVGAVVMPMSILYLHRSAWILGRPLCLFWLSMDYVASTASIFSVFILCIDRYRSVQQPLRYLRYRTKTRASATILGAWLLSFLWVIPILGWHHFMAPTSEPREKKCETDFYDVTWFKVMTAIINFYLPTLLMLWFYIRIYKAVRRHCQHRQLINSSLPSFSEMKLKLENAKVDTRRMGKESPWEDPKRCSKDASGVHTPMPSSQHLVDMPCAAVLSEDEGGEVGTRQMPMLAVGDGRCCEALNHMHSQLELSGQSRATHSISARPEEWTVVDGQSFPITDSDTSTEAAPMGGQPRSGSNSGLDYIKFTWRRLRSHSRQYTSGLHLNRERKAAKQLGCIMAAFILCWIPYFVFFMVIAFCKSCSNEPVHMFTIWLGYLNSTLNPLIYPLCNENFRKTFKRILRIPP
Compound,pKb (Histamine H3 receptor [3]),pKb [5],Intrinsic activity (Histamine H3 receptor [6]),Intrinsic activity (Histamine H2 receptor [7]),pKb (Histamine H3 receptor [12]),Intrinsic activity (Histamine H4 receptor [14]),Intrinsic activity (Histamine H3 receptor [15]),Intrinsic activity [18],pKb (Histamine H4 receptor [23]),pEC50 (Histamine H2 receptor [24]),also measured
Cc1[nH]cnc1CCCCN/C(=N\C#N)NCCSc1ccccc1,–,< 5.3,–,–,5.5,0.37,-0.65,-0.03,–,–,Ratio EC50 [9]: > 10; Ratio EC50 [10]: > 10; Ratio EC50 [11]: > 10; pKb (Histamine H2 receptor [13]): 5.36; Intrinsic activity (Histamine H2 receptor [16]): -0.06; EC50 (Histamine H4 receptor [17]): 245 nM
CN/C(=N\C#N)NCCNc1nccc(N)n1,–,–,–,–,< 5,-0.11,-0.16,–,< 5,inactive,pEC50 [25]: inactive
CN/C(=N\C#N)NCCCNc1nccc(N)n1,–,< 5,–,–,< 5,–,-0.24,0.03,–,inactive,pEC50 (Histamine H4 receptor [17]): inactive
CC(CC(=O)/N=C(\N)NCCCc1ncc[nH]1)c1cccs1 (configuration not stated),5.35,–,-0.46,0.04,–,–,–,–,–,–,pKb (Histamine H2 receptor [4]): 5.26; Intrinsic activity (Histamine H4 receptor [26]): 0.5; EC50 (Histamine H4 receptor [21]): 776 nM
CC(CC(=O)/N=C(\N)NCCCc1cn[nH]c1)c1ccccc1 (configuration not stated),< 5,< 5,0.04,0.44,–,–,–,–,–,–,Efficacy [19]: 54%; EC50 (Histamine H2 receptor [20]): 468 nM; Kb (Histamine H1 receptor): 3800 nM; pKb (Histamine H4 receptor [2]): < 5; EC50 (Histamine H2 receptor [22]): 240 nM
CN/C(=N\C#N)NCCCCNc1ccccn1,–,< 5,–,–,< 5,-0.11,-0.1,0.03,< 5,inactive,–
Cc1nc(CCCCN/C(=N\C#N)NCCSc2ccccc2)c[nH]1,–,< 5.3,–,–,< 5,-0.24,-0.47,-0.01,6.21,–,Intrinsic activity (Histamine H2 receptor [16]): -0.05; EC50 (Histamine H2 receptor [24]): 16.2 µM
CN/C(=N\C#N)NCCCNc1ccccn1,–,–,–,–,< 5,-0.13,-0.03,–,< 5,inactive,pEC50 [25]: inactive

# More lines, main results first:
pKb (Histamine H3 receptor [3]),pKb [5],Intrinsic activity (Histamine H3 receptor [6]),Intrinsic activity (Histamine H2 receptor [7]),pKb (Histamine H3 receptor [12]),Intrinsic activity (Histamine H4 receptor [14]),Intrinsic activity (Histamine H3 receptor [15]),Intrinsic activity [18],pKb (Histamine H4 receptor [23]),pEC50 (Histamine H2 receptor [24]),Compound,also measured
< 5,< 5,-0.01,-0.11,–,–,–,–,–,–,CC(CC(=O)/N=C(\N)NCCCc1cccnc1)c1ccccc1 (configuration not stated),Kb (Histamine H2 receptor [1]): > 31.6 µM; pKb (Histamine H4 receptor [2]): < 5; pKb (Histamine H2 receptor [4]): 5.27; pD'2 [8]: 4.22
< 5,< 5,-0.03,0.42,–,–,–,0.06,–,–,N/C(=N\C(=O)CC(c1ccccc1)c1ccccc1)NCCCc1ncn[nH]1,Efficacy [19]: 83%; EC50 (Histamine H2 receptor [20]): 204 nM; Kb (Histamine H1 receptor): 1620 nM; pEC50 (Histamine H4 receptor [21]): inactive; EC50 (Histamine H2 receptor [22]): 407 nM
< 5,5.34,-0.17,0.3,–,–,–,0.21,–,–,CC(CC(=O)/N=C(\N)NCCCc1ccccn1)c1ccccc1 (configuration not stated),Efficacy [19]: 26%; EC50 (Histamine H2 receptor [20]): 195 nM; pKb (Histamine H4 receptor [2]): < 5; EC50 (Histamine H2 receptor [22]): 832 nM
5.41,< 5,-0.32,0.03,–,–,–,0.09,–,–,CC(CC(=O)/N=C(\N)NCCCc1ncc[nH]1)c1ccccc1 (configuration not stated),Emax [27]: 54%; Kb (Histamine H2 receptor [1]): 12.6 µM; pKb (Histamine H2 receptor [4]): 5.3; Intrinsic activity (Histamine H4 receptor [26]): 0.35; EC50 (Histamine H4 receptor [21]): 2880 nM; pD'2 [8]: 4.44
